For series [1], the system named is 3T3-L1 cells. The series can be described thus: Adipocyte differentiation, Oil Red O staining. It counts as cell-based, mouse. The note with it: preadipocytes 7 days in differentiating media (DM) + compound. As to the method:
Two-day post-confluent 3T3-L1 preadipocyte cells were allowed to differentiate for 7 days in the presence of nothing, DM only, DM+ a test compound (COH-SR1, COH-SR2, COH-SR3, COH-SR4, COH-SR7, LR23 or LR59), or DM+ a positive control (TSA, C75, or Apicidin).
(§1) 3T3-L1 preadipocytes cells were treated with differentiating media (DM) with COH-SR4 (1 μM, 3 μM, or 5 μM) or without for 7 days. […] As used in FIG. 9C, U=undifferentiated, D=differentiated with cocktail media.

Series [2] deals with 3T3-L1 cells. The series is described as follows: Intracellular triglyceride contents, AdipoRed Assay. It counts as cell-based, mouse. The note with it: 7 days in DM + compound. The procedure:
Intracellular triglyceride contents were measured using AdipoRed Assay™ and the results were shown in relative fluorescence units (RFU) in FIG. 5.
as §1

Series [3] deals with fully differentiated adipocytes. The series is described as follows: Dedifferentiation of fully differentiated adipocytes, Oil Red O staining. The format is cell-based. The note with it: differentiated 7 days, treated additional 3 days. The procedure:
Fully differentiated adipocyte cells were differentiated for 7 days and were treated for additional 3 days with DM+ a test compound (COH-SR3, COH-SR7, or LR59), DM+ a positive control (Apicidin, TSA or C75), DM, or nothing (control).

The subject of series [4] is undifferentiated 3T3-L1 cells. The series can be described thus: Preadipocyte viability, MTT assay. The format is cell-based, mouse. The note with it: 3 days, 2.5-25 μM. The procedure: Undifferentiated 3T3-LI cells were treated with COH-SR2, COH-SR3, COH-SR4, COH-SR7, LR23 or LR59 for 3 days at a concentration of 2.5 μM, 5 μM, 10 μM, 15 μM, 20 μM, or 25 μM. The cell viability for each treatment was determined by MTT assay (FIG. 7).
For orientation: Tetrazolium dyes change colour on reduction, which living cells bring about.

The test system of series [5] is HL-60 cells. The series can be described thus: Differentiation of HL-60 cells (Giemsa-Wright, NBT, CD11b/CD14). It counts as cell-based, human. The note with it: 48 hours, 2-10 μM. The procedure: HL-60 cells were incubated with a test compound at various concentrations (2˜10 μM), DMSO, or without any test compound for 48 hours, and then examined for morphologic changes by Giemsa-Wright stain. The results were observed microscopically and shown in FIG. 13 at a magnification of ×400. […] Such results were similar to cells treated with DMSO or all-trans retinoic acid (ATRA), wherein DMSO or ATRA terminally differentiated HL-60 cells into myeloid cells (FIG. 13).
HL-60 cells (2.5×10^5) were treated with or without a test compound for 48 hours and then stained with NBT, wherein positively-stained cells appeared as purple black (FIG. 14A). NBT positive cells were counted and the overall percentage was calculated based on 200 total cells counted for each treatment. Three˜four independent experiments were carried out, and data are shown as mean±SE (FIG. 14B). This measurement of “oxidative burst” by the NBT assay is a well-known and extensively tested functional marker of HL-60 cell differentiation.
HL-60 cells (2.5×10^5) were incubated with a test compound (COH-SR4 or COH-SR9) at a concentration of 0.5 μM, 1 μM, 2 μM, or 3 μM, or without any COH-SR compound for 48 hours and then assessed for the surface expression of CD11b (FIG. 14C) and CD14 (FIG. 14D) by flow cytometry, respectively. Three-four independent experiments were carried out, and data are shown as mean±SE (FIGS. 14C and 14D).

Series [6] relates to NCI-60 human tumor cell lines. The series can be described thus: NCI-60 DTP Human Tumor Cell Line Drug Screening. It counts as cell-based. The note with it: leukemia, NSCLC, colon, CNS, melanoma, ovarian, renal, prostate, breast lines. The text has this:
Moreover, preliminary data from the NCI-60 DTP Human Tumor Cell Line Drug Screening (http://dtp.nci.nih.gov/branches/btb/ivclsp.html) further confirmed the observations on these COH-SR compounds. […] A value of 100 meant no growth inhibition. A value of 20 meant 80% growth inhibition. A value of 0 meant no net growth over the course of the experiment. A value of −40 meant 40% lethality. A value of −100 meant all cells were dead.

Series [7] concerns HMLE breast cancer cell line. The series can be described thus: HMLE viability, DIMSCAN assay. It counts as cell-based, human. The note with it: 3 days, 2-50 μM. The procedure: The effects of COH-SR compounds on breast cancer cells were investigated. Cells from 4T1 or HMLE breast cancer cell line were seeded in 96-well plates (about 2000 cells/well), allowed to proliferate for one day, treated with a COH-SR compound, doxorubicin, paclitaxel, cisplatin, or nothing (control) at a specific dose (3 wells for each treatment) and assayed for cell viability 3 days after using DIMSCAN assay. COH-SR3, COH-SR4, COH-SR9, doxorubicin, paclitaxel, and cisplatin were used at a dosage of 40 nM, 200 nM, 1 μM, 2 μM, 10 μM, or 50 μM for 4T1 breast cancer cell lines. COH-SR14 was used at a dosage of 40 nM, 200 nM, 1 μM, 2 μM, or 10 μM for 4T1 breast cancer cell lines. COH-SR3, COH-SR4, COH-SR9, doxorubicin, paclitaxel, and cisplatin were used at a dosage of 2 μM, 10 μM, or 50 μM for HMLE breast cancer cell lines. COH-SR14 was used at a dosage of 2 μM, or 10 μM for HMLE breast cancer cell lines.

Series [8] has as its system HL-60 cells. The series can be described thus: HL-60 cell viability, MTT assay.
Protocol: Three independent experiments were carried out with 3 duplications each, and data are shown as mean±SE.
For the next series, the system named is U251. The series is described as follows: Glioma ATP viability assay, U251. It counts as cell-based. The note with it: Homo sapiens, U-251, 72 h, Table 2. The procedure:
(§2) Cells of each cell line (U251, U87, PBT-017, PBT018, PBT003 and PBT028) were treated with various concentrations (0˜100 μM) of COH-SR4 for 72 hours. Cell viabilities were determined by ATP viability assays. Data were represented as a ratio to vehicle (DMSO) control, and plotted as mean±SEM (n=12) obtained from 2˜3 experiments (FIG. 34A).
(§3) Cells of each cell line (U87, U251, PBT003 and PVT-017) were treated with various concentrations (0˜100 μM) of COH-SR4 for 72 hours. Cell viabilities were determined by ATP viability assays. Data were represented as a ratio to vehicle (DMSO) control, and plotted as mean±SEM (n=12) obtained from 2-3 experiments (FIG. 34B).
(§4) Cells of each cell line were treated with various concentrations (0˜100 μM) of COH-SR4 or various concentrations (0˜1000 μM) of TMZ for 72 hours. Cell viabilities were determined by ATP viability assays. Data were represented as a ratio to untreated cells as control, and plotted as mean±SEM (n=12) obtained from 2˜3 experiments (FIGS. 43A-B).

The next series concerns PBT-017. The series is described as follows: Glioma ATP viability assay, PBT-017. The note with it: 72 h, Table 2. The format is cell-based. As to the method:
as §2, §3, §4

A further series deals with T1, GSTP (Homo sapiens, UniProt P09211).
T1 construct: made in house; host or cells: E. coli BL21 (DE3)
The series can be described thus: GSTP activity towards CDNB in the presence of GSR4. The note with it: 93977 at 0 μM. The format is biochemical. The procedure: Furthermore, GSTP activities towards CDNB were assessed in the presence of various concentration of GSR4. The GSTP activities decreased when the concentration of GSR4 increased (Table 3). Thus, […] was a product inhibitor of GSTP with an estimated Ki of less than 5 μM.

As usually defined, the IC50 is the point on the concentration scale where inhibition reaches its midpoint. A higher IC50 goes with a need for much substance.

T1 sequence (P09211 whole entry): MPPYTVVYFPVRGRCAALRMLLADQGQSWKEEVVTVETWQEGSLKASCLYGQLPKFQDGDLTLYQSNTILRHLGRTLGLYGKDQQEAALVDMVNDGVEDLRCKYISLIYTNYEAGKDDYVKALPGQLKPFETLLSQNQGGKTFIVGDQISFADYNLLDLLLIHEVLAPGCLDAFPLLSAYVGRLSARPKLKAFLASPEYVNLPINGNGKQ

For `O=C(Nc1ccc(Cl)c(Cl)c1)Nc1ccc(Cl)c(Cl)c1` [COH-SR3, 1,3-bis(3,4-dichlorophenyl)urea], the “differentiation and accumulation of lipid droplets (Oil Red O staining)” value in the series on 3T3-L1 cells [1] is “dose-dependently inhibited differentiation and accumulation of lipid droplets”. Also, in the series on 3T3-L1 cells [2], the “intracellular triglyceride contents (AdipoRed Assay)” value is “dose-dependently reduced”. The “dedifferentiation of fully differentiated adipocytes” value in series [3] was “induced dedifferentiation of fully differentiated adipocytes”. Moreover, the “growth of undifferentiated preadipocytes (MTT)” value in series [4] is “inhibited growth of undifferentiated 3T3-L1 cells”. In addition, in the series on HL-60 cells [5], the “morphologic changes (Giemsa-Wright stain), myeloid differentiation” value is “exhibited cytoplasmic vacuolation, reduced nucleus-to-cytoplasmic ratio, and absence of prominent nucleoli”. Further, the “activity in NCI-60 screening” value in series [6] is reported as “active against”. For the same compound, the “cytotoxic effects compared with doxorubicin, paclitaxel and cisplatin (FIG. 30)” value in [7] is “more potent cytotoxic effects”. In the series on HL-60 cells [8] (48 hours, 1-15 μM), the “cytotoxicity and cell proliferation” value is “exhibited cytotoxicity and prevented cell proliferation of HL-60 leukemia cells”. In the series on HL-60 cells [8] (Homo sapiens, HL-60, 48 h), this compound gave an IC50 of under 5 µM.

For the compound `Cn1nnc2c(C(N)=O)ncn2c1=O` [TMZ, temozolomide, reference compound], the IC50 in the series with U251 stood at 371 µM; in the series on PBT-017 it was 13 µM.

Take mono-glutationyl-SR4 [GSR4]: the “GSTP activity towards CDNB (Kcat [s−1])” value at GSTP ([GSR4] 5 μM) is 36385 s⁻¹; at GSTP ([GSR4] 10 μM), 16115 s⁻¹.

Source of the values: US9808434B2, “Compound for treating cancer and diabetes” (CITY OF HOPE, priority 2011, dated 2017).
